The target of assay [1] is MELK (Homo sapiens, UniProt Q14680). Kind of assay: Kinase assay: MELK activity, phosphorylation of FITC-labeled histone H3 peptide measured by IMAP fluorescence polarization. The assay is classed as biochemical. Conditions: read-out: IC50 (μM) (kinase assay). The procedure, abridged:
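Polarization of fluorescence served as the signal for MELK turnover of FITC-conjugated histone H3 peptide. Binding solution quenched each reaction, and plates stood 0.5 hour at room temperature before reading.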
(In fluorescence polarisation assays a small probe gives low polarisation when free and higher when bound to something large.)

Assay [2] concerns T47D cells. Kind of assay: Cell-based assay: anti-proliferative activity, Cell Counting Kit-8, 72 hours (T47D). Summed up:
(§1)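 Target-specific cytotoxicity: seeded cells treated with MELK inhibitor candidates for 72 h, proliferation quantified via CCK-8, IC50 fitted.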
(Formazan colour is commonly taken as a measure of viable cells.)

Assay [3] concerns A549 cells. Kind of assay: Cell-based assay: anti-proliferative activity, Cell Counting Kit-8, 72 hours (A549). The settings on record: 72 hours. Summed up:
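A549 cells were seeded in 96-well plates and exposed to candidate inhibitors for 72 hours. Cell growth was then measured with Cell Counting Kit-8, and IC50 values were calculated from the resulting growth data.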

Assay [4] has as its system HT-1197 cells. The assay is described as follows: Cell-based assay: anti-proliferative activity, Cell Counting Kit-8, 72 hours (HT-1197, negative control without MELK expression). Conditions: Homo sapiens, HT1197, 72 h, HT1197 cells (negative control, no MELK expression), 72 hours. Summed up: as §1
Assay [5] concerns DU4475. The assay is described as follows: Cell-based assay: anti-proliferative activity, Cell Counting Kit-8, 72 hours (DU4475). Conditions: Homo sapiens, DU-4475, DU4475 cells.
Setting [6] is: 50 micro-M ATP, FITC-labeled histone H3 peptide substrate, IMAP fluorescence polarization.

Like-named read-outs stand apart in the source and are kept apart here.

Sequence of MELK (Q14680 whole entry, looked up): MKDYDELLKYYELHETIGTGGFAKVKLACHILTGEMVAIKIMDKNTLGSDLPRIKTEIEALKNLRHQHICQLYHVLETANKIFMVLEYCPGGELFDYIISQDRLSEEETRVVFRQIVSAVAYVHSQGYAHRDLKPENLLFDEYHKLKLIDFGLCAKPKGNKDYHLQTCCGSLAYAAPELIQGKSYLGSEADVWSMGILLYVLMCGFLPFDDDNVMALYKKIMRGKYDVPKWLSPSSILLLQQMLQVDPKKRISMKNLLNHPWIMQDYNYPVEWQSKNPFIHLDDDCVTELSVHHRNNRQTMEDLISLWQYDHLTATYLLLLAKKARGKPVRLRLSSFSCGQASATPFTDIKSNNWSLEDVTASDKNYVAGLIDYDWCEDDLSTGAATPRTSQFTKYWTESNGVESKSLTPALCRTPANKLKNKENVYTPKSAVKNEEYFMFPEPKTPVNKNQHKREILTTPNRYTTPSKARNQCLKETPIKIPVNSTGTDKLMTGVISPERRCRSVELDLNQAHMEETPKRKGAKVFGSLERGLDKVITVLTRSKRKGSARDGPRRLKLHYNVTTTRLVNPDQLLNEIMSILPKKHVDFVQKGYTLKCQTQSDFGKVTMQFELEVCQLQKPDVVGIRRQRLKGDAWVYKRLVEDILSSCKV

A word on the IC50: it is the midpoint of a concentration-inhibition curve. Regarding `COc1cc(-c2ccc3ncc(C(=O)C4CC4)c(Nc4ccc(N5CCN(C)CC5)nc4)c3c2)cc(Cl)c1O` [Example 470], the half-maximal inhibitory concentration (IC50) in assay [1] stood at 0.015 µM; in assay [2] (Homo sapiens, T47D, 72 h) it was 0.26 µM; in assay [3] (Homo sapiens, A549, 72 h), 0.56 µM; in assay [4], 2.2 µM; in assay [5], 0.68 µM.
Taken in the same sequence, the figures for `COc1cc(-c2ccc3ncc(C(=O)C4CC4)c(Nc4cnc(N5CCNCC5)nc4)c3c2)cc(Cl)c1O` [Example 503, (6-(3-chloro-4-hydroxy-5-methoxyphenyl)-4-(2-(piperazin-1-yl)pyrimidin-5-ylamino)quinolin-3-yl)(cyclopropyl)methanone] were 0.0047 µM, 0.24 µM, 0.37 µM, 1.1 µM and 0.46 µM.
As for `CN1CCN(c2ccc(Nc3c(C(=O)C4CC4)cnc4ccc(-c5cc(Cl)c(O)c(Cl)c5)cc34)cn2)CC1` [Example 472], the 50% inhibitory concentration (IC50) in assay [1] stood at 0.023 µM; in assay [2] (Homo sapiens, T47D, 72 h), 0.3 µM; in assay [3] (Homo sapiens, A549, 72 h), 0.18 µM; in assay [4] it was 5.7 µM; in assay [5], 0.11 µM.
`CCOc1cc(-c2ccc3ncc(C(C)=O)c(N[C@H]4CC[C@H](N)CC4)c3c2)cc(Cl)c1O` [Example 486]: the IC50 in assay [1] was 0.0021 µM; in assay [2] (Homo sapiens, T47D, 72 h), 0.15 µM; in assay [3] (Homo sapiens, A549, 72 h), 0.11 µM; in assay [4] it was 2.2 µM; in assay [5], 0.13 µM.
Turning to `NCc1ccc(Nc2c(C(=O)C3CC3)cnc3ccc(-c4cc(F)c(O)c(Cl)c4)cc23)cc1` [Example 504, {4-[4-(Aminomethyl)phenylamino]-6-(3-chloro-5-fluoro-4-hydroxyphenyl)quinolin-3-yl}(cyclopropyl)methanone], the IC50 in assay [1] was determined as 0.0089 µM; in assay [2] (Homo sapiens, T47D, 72 h), 0.084 µM; in assay [3] (Homo sapiens, A549, 72 h) it was 0.081 µM; in assay [4] it was 0.71 µM; in assay [5] it was 0.019 µM.
Consider `O=C(c1cnc2ccc(-c3cc(F)c(O)c(Cl)c3)cc2c1Nc1ccc(CN2CCOCC2)cc1)C1CC1` [Example 460], for which the IC50 was 0.083 µM in assay [1] (setting [6]); 0.65 µM in assay [2] (Homo sapiens, T47D, 72 h); 0.59 µM in assay [3] (Homo sapiens, A549, 72 h); 4.2 µM in assay [4]; 0.42 µM in assay [5].
In the case of `CN1CCN(c2ncc(-c3c(C(=O)C4CC4)cnc4ccc(-c5cc(Cl)c(O)c(Cl)c5)cc34)cn2)CC1` [Example 479, cyclopropyl(6-(3,5-dichloro-4-hydroxyphenyl)-4-(2-(4-methylpiperazin-1-yl)pyrimidin-5-yl)quinolin-3-yl)methanone], the IC50 in assay [1] came out at 0.04 µM; in assay [2] (Homo sapiens, T47D, 72 h), 0.92 µM; in assay [3] (Homo sapiens, A549, 72 h) it was 1.7 µM; in assay [4], 7.9 µM; in assay [5], 1.7 µM.
Take `CC(=O)c1cnc2ccc(-c3cc(Cl)c(O)c(Cl)c3)cc2c1Nc1ccc(CN2CCCC2)cc1` [Example 415, 1-(6-(3,5-dichloro-4-hydroxyphenyl)-4-((4-(pyrrolidin-1-ylmethyl)phenyl)amino)quinolin-3-yl)ethanone]: the IC50 in assay [1] (setting [6]) came out at 0.035 µM; in assay [2] (Homo sapiens, T47D, 72 h), 0.12 µM; in assay [3] (Homo sapiens, A549, 72 h) it was 0.15 µM; in assay [4] it was 10 µM; in assay [5], 0.067 µM.
`CC(=O)c1cnc2ccc(-c3cc(F)c(O)c(Cl)c3)cc2c1Nc1ccc(N2CCN(C)CC2)nc1` [Example 487, 1-(6-(3-Chloro-5-fluoro-4-hydroxyphenyl)-4-(6-(4-methylpiperazin-1-yl)pyridin-3-ylamino)quinolin-3-yl)ethanone]: the IC50 worked out at 0.01 µM in assay [1]; 0.041 µM in assay [2] (72 hours); 0.088 µM in assay [3]; 1.4 µM in assay [4]; 0.1 µM in assay [5].
As for `COc1cc(-c2ccc3ncc([S+](C)[O-])c(N4CCC(CN(C)C)CC4)c3c2)cc(Cl)c1O` (centres unmarked) [Example 468], the IC50 in assay [1] was found to be 0.0051 µM; in assay [2] (Homo sapiens, T47D, 72 h), 0.93 µM; in assay [3] (Homo sapiens, A549, 72 h), 1.4 µM; in assay [4] it was 9.2 µM; in assay [5], 0.93 µM.
Consider `CN(C)Cc1ccc(Nc2c(C(=O)C3CCCC3)cnc3ccc(-c4cc(F)c(O)c(Cl)c4)cc23)cc1` [Example 388, (6-(3-chloro-5-fluoro-4-hydroxyphenyl)-4-(4-((dimethylamino)methyl)phenylamino)quinolin-3-yl)(cyclopentyl)methanone], for which the IC50 came to 0.014 µM in assay [1] (setting [6]); 0.52 µM in assay [2] (Homo sapiens, T47D, 72 h); 0.52 µM in assay [3] (Homo sapiens, A549, 72 h); 1.5 µM in assay [4]; 0.21 µM in assay [5].
With `COc1cc(-c2ccc3ncc(C(=O)C4CC4)c(Nc4ccc(Cn5ccnc5)cc4)c3c2)cc(Cl)c1O` [Example 490, (4-(4-((1H-imidazol-1-yl)methyl)phenylamino)-6-(3-chloro-4-hydroxy-5-methoxyphenyl)quinolin-3-yl)(cyclopropyl)methanone], the half-maximal inhibitory concentration (IC50) in assay [1] worked out at 0.014 µM; in assay [2] (Homo sapiens, T47D, 72 h), 0.78 µM; in assay [3] (Homo sapiens, A549, 72 h), 0.68 µM; in assay [4] it was 5.8 µM; in assay [5] it was 0.86 µM.
Regarding `C[S+]([O-])c1cnc2ccc(-c3cc(F)c(O)c(Cl)c3)cc2c1N[C@H]1CC[C@H](N)CC1` (some centres unmarked) [Example 498], the IC50 in assay [1] amounted to 0.046 µM; in assay [2] (Homo sapiens, T47D, 72 h) it was 10 µM; in assay [3] (Homo sapiens, A549, 72 h), 10 µM; in assay [4], 10 µM; in assay [5], 2.8 µM.
Consider `O=C(c1cnc2ccc(-c3cc(Cl)c(O)c(Cl)c3)cc2c1-c1ccc(OCCN2CCCC2)cc1)C1CC1` [Example 485, cyclopropyl(6-(3,5-dichloro-4-hydroxyphenyl)-4-(4-(2-(pyrrolidin-1-yl)ethoxy)phenyl)quinolin-3-yl)methanone], for which the IC50 stood at 0.0056 µM in assay [1]; 0.77 µM in assay [2] (Homo sapiens, T47D, 72 h); 1.2 µM in assay [3] (Homo sapiens, A549, 72 h); 10 µM in assay [4]; 1.2 µM in assay [5].
`COc1cc(-c2ccc3ncc(C(=O)C4CC4)c(-c4ccc(N5CCN(C)CC5)cc4)c3c2)cc(Cl)c1O` [Example 438, (6-(3-chloro-4-hydroxy-5-methoxyphenyl)-4-(4-(4-methylpiperazin-1-yl)phenyl)quinolin-3-yl)(cyclopropyl)methanone]: the IC50 in assay [1] (setting [6]) is 0.018 µM; in assay [2] (Homo sapiens, T47D, 72 h) it was 0.39 µM; in assay [3] (Homo sapiens, A549, 72 h) it was 0.25 µM; in assay [4], 6.5 µM; in assay [5] it was 0.49 µM.
The matching figures for `CCOc1cc(-c2ccc3ncc(C(=O)C4CC4)c(N4CCC(CN(C)C)CC4)c3c2)cc(Cl)c1O` [Example 457]: 0.0024 µM, 0.22 µM, 0.14 µM, 2.4 µM and 0.21 µM.
As to `CN(C)CC1CCN(c2c([S+](C)[O-])cnc3ccc(-c4cc(F)c(O)c(Cl)c4)cc23)CC1` (centres unmarked) [Example 467], the IC50 was 0.011 µM in assay [1]; 1.5 µM in assay [2] (Homo sapiens, T47D, 72 h); 13 µM in assay [3] (Homo sapiens, A549, 72 h); 35 µM in assay [4]; 1.2 µM in assay [5].
In the case of `CCN(CC)C1CCC(Nc2c(C(=O)C3CCCC3)cnc3ccc(-c4cc(F)c(O)c(Cl)c4)cc23)CC1` (centres unmarked) [Example 386, (6-(3-chloro-5-fluoro-4-hydroxyphenyl)-4-(4-(diethylamino)cyclohexylamino)quinolin-3-yl)(cyclopentyl)methanone], the IC50 was found to be 0.0092 µM in assay [1] (setting [6]); 0.41 µM in assay [2] (Homo sapiens, T47D, 72 h); 0.4 µM in assay [3] (Homo sapiens, A549, 72 h); 0.78 µM in assay [4]; 0.29 µM in assay [5].
With `CN1CCN(c2ccc(Nc3c(C(=O)C4CC4)cnc4ccc(-c5cc(F)c(O)c(Cl)c5)cc34)cn2)CC1` [Example 471], the IC50 is 0.011 µM in assay [1]; 0.14 µM in assay [2] (Homo sapiens, T47D, 72 h); 0.21 µM in assay [3] (Homo sapiens, A549, 72 h); 2.8 µM in assay [4]; 0.14 µM in assay [5].
In the case of `O=C(c1cnc2ccc(-c3cc(F)c(O)c(Cl)c3)cc2c1Nc1cnc(N2CCNCC2)nc1)C1CC1` [Example 496, (6-(3-chloro-5-fluoro-4-hydroxyphenyl)-4-((2-(piperazin-1-yl)pyrimidin-5-yl)amino)quinolin-3-yl)(cyclopropyl)methanone], the half-inhibitory concentration (IC50) is 0.0048 µM in assay [1]; 0.036 µM in assay [2] (Homo sapiens, T47D, 72 h); 0.079 µM in assay [3] (Homo sapiens, A549, 72 h); 0.64 µM in assay [4]; 0.068 µM in assay [5].
On to `COc1cc(-c2ccc3ncc(C#N)c(N[C@H]4CC[C@H](N(C)C)CC4)c3c2)cc(Cl)c1O` [Example 447], for which the IC50 in assay [2] (Homo sapiens, T47D, 72 h) is 0.15 µM; in assay [3] (Homo sapiens, A549, 72 h), 0.4 µM; in assay [4] it was 2 µM; in assay [5], 0.076 µM.
Turning to `O=C(c1cnc2ccc(-c3cc(Cl)c(O)c(Cl)c3)cc2c1Nc1ccc(CN2CCOCC2)cc1)C1CC1` [Example 463], the IC50 is 0.52 µM in assay [2] (Homo sapiens, T47D, 72 h); 0.43 µM in assay [3] (Homo sapiens, A549, 72 h); 3.6 µM in assay [4]; 0.26 µM in assay [5].
Turning to `COc1cc(-c2ccc3ncc([S+](C)[O-])c(N[C@H]4CC[C@H](N)CC4)c3c2)cc(Cl)c1O` (some centres unmarked) [Example 500], the IC50 is 1.6 µM in assay [2] (Homo sapiens, T47D, 72 h); 4.5 µM in assay [3] (Homo sapiens, A549, 72 h); 13 µM in assay [4]; 1.8 µM in assay [5].
For `CN(C)Cc1ccc(Nc2c([S+](C)[O-])cnc3ccc(-c4cc(Cl)c(O)c(Cl)c4)cc23)cc1` (centres unmarked) [Example 473], the IC50 in assay [2] (Homo sapiens, T47D, 72 h) came to 0.43 µM; in assay [3] (Homo sapiens, A549, 72 h), 1.2 µM; in assay [4], 2.4 µM; in assay [5], 0.6 µM.

These data come from patent US9120749B2, “Quinoline derivatives and MELK inhibitors containing the same” (ONCOTHERAPY SCIENCE, INC., priority 2010, dated 2015).
